In ChEMBL document CHEMBL1201862, “PubChem BioAssay data set” (2004):
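Tested at 5 concentrations; 48 h exposure; 96-well plates; endpoints linearly interpolated, else capped at highest concentration. The concentration for 50% growth inhibition is given as GI50.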 Calls of active or inactive are those of the source. Rule as the data show it: active = GI50 up to about 1.1 µM and inactive = higher.

Key:
Assay in all cases: NCI anticancer screen, dose series, 48 h
SW-620 = system: SW-620
OVCAR-3 = system: OVCAR-3
SF-539 = system: SF-539
OVCAR-4 = system: OVCAR-4
UO-31 = system: UO-31
SNB-75 = system: SNB-75
DU-145 = system: DU-145
SK-MEL-28 = system: SK-MEL-28
MDA-MB-231 = system: MDA-MB-231
M14 = system: M14
NCI-H522 = system: NCI-H522
NCI/ADR-RES = system: NCI/ADR-RES
ACHN = system: ACHN
Malme-3M = system: Malme-3M
MCF7 = system: MCF7
UACC-62 = system: UACC-62
HOP-62 = system: HOP-62
A498 = system: A498
MDA-N = system: MDA-N
A549 = system: A549
T47D = system: T47D
NCI-H23 = system: NCI-H23
SR = system: SR
KM12 = system: KM12
HCC 2998 = system: HCC 2998
Hs-578T = system: Hs-578T
CCRF-CEM = system: CCRF-CEM
MDA-MB-435 = system: MDA-MB-435
K562 = system: K562
UACC-257 = system: UACC-257
OVCAR-5 = system: OVCAR-5
HT-29 = system: HT-29
HL-60 = system: HL-60
SF-295 = system: SF-295
SN12C = system: SN12C
U-251 = system: U-251
LOX IMVI = system: LOX IMVI
HOP-92 = system: HOP-92
786-0 = system: 786-0
CAKI-1 = system: CAKI-1
COLO 205 = system: COLO 205
NCI-H460 = system: NCI-H460
SF-268 = system: SF-268
SK-MEL-2 = system: SK-MEL-2
TK-10 = system: TK-10
SK-MEL-5 = system: SK-MEL-5
BT-549 = system: BT-549
NCI-H226 = system: NCI-H226
OVCAR-8 = system: OVCAR-8
HCT-15 = system: HCT-15
EKVX = system: EKVX
IGROV-1 = system: IGROV-1
SK-OV-3 = system: SK-OV-3
SNB-19 = system: SNB-19
PC-3 = system: PC-3
RPMI-8226 = system: RPMI-8226
HCT-116 = system: HCT-116
RXF 393 = system: RXF 393

Br[Se]c1ccccn1 was tested, and the GI50 (SW-620) was 23.9 µM (inactive), the GI50 (OVCAR-3) was 15.5 µM (inactive) and the GI50 (SF-539) was 15.8 µM (inactive). The GI50 (OVCAR-4) was 16.9 µM (inactive), the GI50 (UO-31) was 17.1 µM (inactive) and the GI50 (SNB-75) was 17 µM (inactive). The GI50 (DU-145) was 16.7 µM (inactive), the GI50 (SK-MEL-28) was 19.6 µM (inactive) and the GI50 (MDA-MB-231) was 17.7 µM (inactive). The GI50 (M14) was 17.6 µM (inactive), the GI50 (NCI-H522) was 16.4 µM (inactive) and the GI50 (NCI/ADR-RES) was 26.1 µM (inactive). The GI50 (ACHN) was 16.3 µM (inactive), the GI50 (Malme-3M) was 17.4 µM (inactive) and the GI50 (MCF7) was 17.7 µM (inactive). The GI50 (UACC-62) was 17.1 µM (inactive), the GI50 (HOP-62) was 2.48 µM (inactive) and the GI50 (A498) was 17.9 µM (inactive). The GI50 (MDA-N) was 17.7 µM (inactive), the GI50 (A549) was 21.6 µM (inactive) and the GI50 (T47D) was 21.8 µM (inactive). The GI50 (NCI-H23) was 20.7 µM (inactive), the GI50 (SR) was 23.4 µM (inactive) and the GI50 (KM12) was 17.3 µM (inactive). The GI50 (HCC 2998) was 21.1 µM (inactive), the GI50 (Hs-578T) was 18.7 µM (inactive) and the GI50 (CCRF-CEM) was 27.6 µM (inactive). For the same compound, the GI50 (MDA-MB-435) was 17.3 µM (inactive), the GI50 (K562) was 24.8 µM (inactive) and the GI50 (UACC-257) was 17.8 µM (inactive). For the same compound, the GI50 (OVCAR-5) was 20.2 µM (inactive), the GI50 (HT-29) was 25.3 µM (inactive) and the GI50 (HL-60) was 17.6 µM (inactive). For the same compound, the GI50 (SF-295) was 4.5 µM (inactive), the GI50 (SN12C) was 18.7 µM (inactive) and the GI50 (U-251) was 15.6 µM (inactive). For the same compound, the GI50 (LOX IMVI) was 18.7 µM (inactive), the GI50 (HOP-92) was 18.5 µM (inactive) and the GI50 (786-0) was 18.2 µM (inactive). The GI50 (CAKI-1) was 18.7 µM (inactive), the GI50 (COLO 205) was 17.1 µM (inactive) and the GI50 (NCI-H460) was 18.9 µM (inactive). The GI50 (SF-268) was 18.2 µM (inactive), the GI50 (SK-MEL-2) was 16.4 µM (inactive) and the GI50 (TK-10) was 20.2 µM (inactive). For the same compound, the GI50 (SK-MEL-5) was 15.6 µM (inactive), the GI50 (BT-549) was 18.9 µM (inactive) and the GI50 (NCI-H226) was 17.5 µM (inactive). The GI50 (OVCAR-8) was 19.6 µM (inactive), the GI50 (HCT-15) was 19 µM and the GI50 (EKVX) was 17.6 µM (inactive). For the same compound, the GI50 (IGROV-1) was 17.5 µM (inactive), the GI50 (SK-OV-3) was 20.5 µM (inactive) and the GI50 (SNB-19) was 12.4 µM (inactive). The GI50 (PC-3) was 16.4 µM (inactive), the GI50 (RPMI-8226) was 23.8 µM (inactive) and the GI50 (HCT-116) was 18.3 µM (inactive). The GI50 (RXF 393) was 17.2 µM (inactive).
In the case of CC1=CC=CC(C)(C)CC1(O[Si](C)(C)C)C(F)(F)F (centres undefined), the GI50 (SW-620) is reported as > 100 µM (inactive), the GI50 (OVCAR-3) is reported as > 100 µM (inactive) and the GI50 (SF-539) is reported as > 100 µM (inactive). For the same compound, the GI50 (OVCAR-4) was > 100 µM (inactive), the GI50 (UO-31) was > 100 µM (inactive) and the GI50 (SNB-75) was > 100 µM (inactive). The GI50 (DU-145) was > 100 µM (inactive), the GI50 (SK-MEL-28) was > 100 µM (inactive) and the GI50 (MDA-MB-231) was > 100 µM (inactive). For the same compound, the GI50 (M14) was > 100 µM (inactive), the GI50 (NCI-H522) was 43.3 µM (inactive) and the GI50 (NCI/ADR-RES) was > 100 µM (inactive). The GI50 (ACHN) was > 100 µM (inactive), the GI50 (Malme-3M) was > 100 µM (inactive) and the GI50 (MCF7) was 92.7 µM (inactive). The GI50 (UACC-62) was > 100 µM (inactive), the GI50 (HOP-62) was > 100 µM (inactive) and the GI50 (A498) was > 100 µM (inactive). The GI50 (MDA-N) was > 100 µM (inactive), the GI50 (A549) was 64.3 µM (inactive) and the GI50 (T47D) was > 100 µM (inactive). The GI50 (NCI-H23) was > 100 µM (inactive), the GI50 (SR) was > 100 µM (inactive) and the GI50 (KM12) was > 100 µM (inactive). The GI50 (HCC 2998) was > 100 µM (inactive), the GI50 (Hs-578T) was > 100 µM (inactive) and the GI50 (CCRF-CEM) was > 100 µM (inactive). The GI50 (MDA-MB-435) was > 100 µM (inactive), the GI50 (K562) was 76.4 µM (inactive) and the GI50 (UACC-257) was > 100 µM (inactive). The GI50 (OVCAR-5) was > 100 µM (inactive), the GI50 (HT-29) was 46.8 µM (inactive) and the GI50 (HL-60) was 28.9 µM (inactive). The GI50 (SF-295) was > 100 µM (inactive), the GI50 (SN12C) was > 100 µM (inactive) and the GI50 (U-251) was 98.9 µM (inactive). For the same compound, the GI50 (LOX IMVI) was > 100 µM (inactive), the GI50 (HOP-92) was > 100 µM (inactive) and the GI50 (786-0) was > 100 µM (inactive). The GI50 (CAKI-1) was > 100 µM (inactive), the GI50 (COLO 205) was 72.3 µM (inactive) and the GI50 (NCI-H460) was > 100 µM (inactive). The GI50 (SF-268) was > 100 µM (inactive), the GI50 (SK-MEL-2) was > 100 µM (inactive) and the GI50 (TK-10) was > 100 µM (inactive). The GI50 (SK-MEL-5) was > 100 µM (inactive), the GI50 (BT-549) was > 100 µM (inactive) and the GI50 (NCI-H226) was > 100 µM (inactive). The GI50 (OVCAR-8) was > 100 µM (inactive), the GI50 (HCT-15) was greater than 100 µM and the GI50 (EKVX) was 82.6 µM (inactive). The GI50 (IGROV-1) was 26.6 µM (inactive), the GI50 (SK-OV-3) was > 100 µM (inactive) and the GI50 (SNB-19) was > 100 µM (inactive). The GI50 (PC-3) was > 100 µM (inactive), the GI50 (RPMI-8226) was > 100 µM (inactive) and the GI50 (HCT-116) was > 100 µM (inactive). The GI50 (RXF 393) was > 100 µM (inactive).
In the case of CSc1ccc2c(c1)c(CCN)c(C)n2Cc1ccccc1Cl, the GI50 (SW-620) is reported as 1.78 µM (inactive), the GI50 (OVCAR-3) is reported as 1.86 µM (inactive) and the GI50 (SF-539) is reported as 1.37 µM (inactive). The GI50 (OVCAR-4) was 1.73 µM (inactive), the GI50 (UO-31) was 1.52 µM (inactive) and the GI50 (SNB-75) was 1.61 µM (inactive). For the same compound, the GI50 (DU-145) was 1.66 µM (inactive), the GI50 (SK-MEL-28) was 1.75 µM (inactive) and the GI50 (MDA-MB-231) was 1.84 µM (inactive). For the same compound, the GI50 (M14) was 1.72 µM (inactive), the GI50 (NCI-H522) was 1.5 µM (inactive) and the GI50 (NCI/ADR-RES) was 2.03 µM (inactive). For the same compound, the GI50 (ACHN) was 1.69 µM (inactive), the GI50 (Malme-3M) was 1.69 µM (inactive) and the GI50 (MCF7) was 1.85 µM (inactive). For the same compound, the GI50 (UACC-62) was 1.65 µM (inactive), the GI50 (HOP-62) was 1.18 µM (inactive) and the GI50 (A498) was 1.71 µM (inactive). The GI50 (MDA-N) was 1.64 µM (inactive), the GI50 (A549) was 1.68 µM (inactive) and the GI50 (T47D) was 1.57 µM (inactive). For the same compound, the GI50 (NCI-H23) was 1.93 µM (inactive), the GI50 (SR) was 2.42 µM (inactive) and the GI50 (KM12) was 1.82 µM (inactive). For the same compound, the GI50 (HCC 2998) was 0.74 µM (active), the GI50 (Hs-578T) was 1.67 µM (inactive) and the GI50 (CCRF-CEM) was 1.51 µM (inactive). For the same compound, the GI50 (MDA-MB-435) was 1.67 µM (inactive), the GI50 (K562) was 1.69 µM (inactive) and the GI50 (UACC-257) was 1.73 µM (inactive). For the same compound, the GI50 (OVCAR-5) was 1.85 µM (inactive), the GI50 (HT-29) was 1.6 µM (inactive) and the GI50 (HL-60) was 1.56 µM (inactive). For the same compound, the GI50 (SF-295) was 1.82 µM (inactive), the GI50 (SN12C) was 1.58 µM (inactive) and the GI50 (U-251) was 1.66 µM (inactive). For the same compound, the GI50 (LOX IMVI) was 1.83 µM (inactive), the GI50 (HOP-92) was 1.26 µM (inactive) and the GI50 (786-0) was 1.72 µM (inactive). For the same compound, the GI50 (CAKI-1) was 1.95 µM (inactive), the GI50 (COLO 205) was 1.67 µM (inactive) and the GI50 (NCI-H460) was 1.55 µM (inactive). For the same compound, the GI50 (SF-268) was 1.76 µM (inactive), the GI50 (SK-MEL-2) was 1.8 µM (inactive) and the GI50 (TK-10) was 1.73 µM (inactive). The GI50 (SK-MEL-5) was 1.72 µM (inactive), the GI50 (BT-549) was 3.26 µM (inactive) and the GI50 (NCI-H226) was 1.66 µM (inactive). The GI50 (OVCAR-8) was 1.79 µM (inactive), the GI50 (HCT-15) was 2.02 µM and the GI50 (EKVX) was 1.62 µM (inactive). For the same compound, the GI50 (IGROV-1) was 1.61 µM (inactive), the GI50 (SK-OV-3) was 2 µM (inactive) and the GI50 (SNB-19) was 1.77 µM (inactive). The GI50 (PC-3) was 1.52 µM (inactive), the GI50 (RPMI-8226) was 1.42 µM (inactive) and the GI50 (HCT-116) was 1.63 µM (inactive). For the same compound, the GI50 (RXF 393) was 1.4 µM (inactive).
